Test [1] concerns the target T1, human SSTR4 (Homo sapiens, UniProt P31391). In kind it is cell-based.
For test [2], the target named is T1, human SSTR4. Kind of test: cell-based.
The target of test [3] is human SSTR1 (Homo sapiens, UniProt P30872). In kind it is cell-based.
The subject of test [4] is C57Bl/6j mice. The settings on record: mouse, in vivo, ip, 5 mg/kg.
Test [5] deals with SSTR4. Particulars: binding assays ref 48; cited from earlier work.

Structures can show the parent of a compound that is named as a salt. Positions of bridges follow the written chain, without caps; N, C: chain ends. Non-standard residues stand in square brackets, D forms with d. Residues, ends and D or L forms follow the SMILES beside them. Hyp = O=C(O)[C@@H]1C[C@@H](O)CN1

T1 sequence (P31391 whole entry): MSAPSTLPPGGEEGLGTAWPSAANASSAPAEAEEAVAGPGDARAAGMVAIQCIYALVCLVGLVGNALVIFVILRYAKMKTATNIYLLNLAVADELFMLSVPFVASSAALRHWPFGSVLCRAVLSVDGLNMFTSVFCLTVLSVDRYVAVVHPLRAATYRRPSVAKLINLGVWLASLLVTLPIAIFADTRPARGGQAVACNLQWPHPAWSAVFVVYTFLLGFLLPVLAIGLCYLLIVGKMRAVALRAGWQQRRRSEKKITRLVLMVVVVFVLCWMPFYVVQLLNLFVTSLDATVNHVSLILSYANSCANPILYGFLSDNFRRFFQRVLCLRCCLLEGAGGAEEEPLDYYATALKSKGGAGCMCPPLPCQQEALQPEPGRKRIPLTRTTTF
Sequence of human SSTR1 (P30872 whole entry): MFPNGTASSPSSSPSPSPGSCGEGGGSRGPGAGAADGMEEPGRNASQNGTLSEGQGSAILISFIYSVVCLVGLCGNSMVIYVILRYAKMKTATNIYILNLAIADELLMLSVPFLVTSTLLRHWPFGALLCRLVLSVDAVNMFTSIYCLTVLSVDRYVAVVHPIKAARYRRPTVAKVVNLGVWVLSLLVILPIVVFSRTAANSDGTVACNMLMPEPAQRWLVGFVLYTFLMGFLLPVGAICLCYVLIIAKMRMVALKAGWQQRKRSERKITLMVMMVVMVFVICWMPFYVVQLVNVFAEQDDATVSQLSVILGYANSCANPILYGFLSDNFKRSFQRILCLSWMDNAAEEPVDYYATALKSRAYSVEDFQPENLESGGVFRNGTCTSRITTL

On to `CC(C)C[C@H](NC(=O)[C@@H]1C[C@@H](O)CN1C(=O)[C@@H]1CSSC[C@H](NC(=O)[C@H](Cc2ccccc2)NC(=O)[C@@H](N)CC(C)C)C(=O)N[C@H](Cc2c[nH]c3ccccc23)C(=O)N[C@@H](CCCCN)C(=O)N[C@@H](Cc2ccccc2)C(=O)NCC(=O)N1)C(=O)O` [Fj1A13] (H-LFC[dW]KFGC[Hyp]L-OH; disulfide 3-8; N-terminus assumed), for which the “increase in potency at SSTR4” value in test [1] is 11 fold. In the case of `CC(C)C[C@H](NC(=O)[C@@H]1C[C@@H](O)CN1C(=O)[C@@H]1CSSC[C@H](NC(=O)[C@@H](NC(=O)[C@@H]2CCCN2)C(C)C)C(=O)N[C@H](Cc2c[nH]c3ccccc23)C(=O)N[C@@H](CCCCN)C(=O)N[C@@H](C)C(=O)NCC(=O)N1)C(=O)O` [Fj1A3] (H-PVC[dW]KAGC[Hyp]L-OH; disulfide 3-8; N-terminus assumed), the “decrease in potency at SSTR4” value in test [1] was determined as 630 fold.

On to `CC(C)C[C@H](NC(=O)[C@@H]1C[C@@H](O)CN1C(=O)[C@@H]1CSSC[C@H](NC(=O)[C@@H](NC(=O)[C@@H]2CCCN2)C(C)C)C(=O)N[C@H](Cc2c[nH]c3ccccc23)C(=O)N[C@@H](CCCCN)C(=O)N[C@@H](Cc2ccccc2)C(=O)N[C@@H](CO)C(=O)N1)C(=O)O` [Fj1A15] (H-PVC[dW]KFSC[Hyp]L-OH; disulfide 3-8; N-terminus assumed), for which the “increase in potency at SSTR4” value in test [1] is reported as 14 fold. For `CC(C)C[C@H](NC(=O)[C@@H]1C[C@@H](O)CN1C(=O)[C@@H]1CSSC[C@H](NC(=O)[C@@H](NC(=O)[C@@H]2CCCN2)C(C)C)C(=O)N[C@H](Cc2c[nH]c3ccccc23)C(=O)N[C@@H](CCCCN)C(=O)N[C@H](Cc2ccccc2)C(=O)NCC(=O)N1)C(=O)O` [Fj1A8] (H-PVC[dW]K[dF]GC[Hyp]L-OH; disulfide 3-8; N-terminus assumed), the “decrease in potency at SSTR4” value in test [1] is 42 fold. For `CC(C)[C@H](NC(=O)[C@@H]1CCCN1)C(=O)N[C@H]1CSSC[C@@H](C(=O)N[C@@H](Cc2c[nH]c3ccccc23)C(=O)O)NC(=O)[C@H]([C@@H](C)O)NC(=O)[C@H](Cc2ccccc2)NC(=O)[C@H](CCCCN)NC(=O)[C@@H](Cc2c[nH]c3ccccc23)NC1=O` [Fj1A19] (H-PVC[dW]KFTCW-OH; disulfide 3-8; N-terminus assumed), the “effect on SSTR4 potency” value in test [1] is listed as “slight decrease in SSTR4 potency”.

For orientation: EC50 means the concentration needed to bring the measured effect to its halfway point. For `CC(C)[C@H](NC(=O)[C@@H]1CSSC[C@H](NC(=O)[C@H](CC(N)=O)NC(=O)[C@@H](N)Cc2ccc(O)cc2)C(=O)N[C@@H](Cc2c[nH]cn2)C(=O)N[C@H](Cc2c[nH]c3ccccc23)C(=O)N[C@@H](CCCCN)C(=O)N[C@@H]([C@@H](C)O)C(=O)N1)C(=O)O` [Fj2] (H-YNCH[dW]KTCV-OH; disulfide 3-8; N-terminus assumed), the EC50 in test [2] came out at 2 µM. That is a single-digit micromolar value. `CC(C)C[C@H](NC(=O)[C@@H]1CCCN1C(=O)[C@@H]1CSSC[C@H](NC(=O)[C@@H](NC(=O)[C@@H]2CCCN2)C(C)C)C(=O)N[C@H](Cc2c[nH]c3ccccc23)C(=O)N[C@@H](CCCCN)C(=O)N[C@@H](Cc2ccccc2)C(=O)NCC(=O)N1)C(=O)O` [Fj1A7] (H-PVC[dW]KFGCPL-OH; disulfide 3-8; N-terminus assumed): in test [3], the “effect on SSTR1 potency” value is listed as “increase in SSTR1 potency”. Besides, the “effect on SSTR4 potency” value in test [1] was “virtually no effect”.

As to `CN1CC[C@]23c4c5ccc(O)c4O[C@H]2[C@@H](O)C=C[C@H]3[C@H]1C5` [morphine, morphine sulfate], in test [4], the duration of action result is “shorter” and the peak efficacy result is “higher peak efficacy than Fj1”. With `CC(C)C[C@H](NC(=O)[C@@H]1C[C@@H](O)CN1C(=O)[C@@H]1CSSC[C@H](NC(=O)[C@@H](NC(=O)[C@@H]2CCCN2)C(C)C)C(=O)N[C@H](Cc2c[nH]c3ccccc23)C(=O)N[C@@H](CCCCN)C(=O)N[C@@H](Cc2ccccc2)C(=O)N[C@@H]([C@@H](C)O)C(=O)N1)C(=O)O` [Fj1A16] (H-PVC[dW]KFTC[Hyp]L-OH; disulfide 3-8; N-terminus assumed), the “effect on SSTR1 potency” value in test [3] is given as “slight increase in SSTR1 activity”. For the same compound, in test [1], the “effect on SSTR4 potency” value is “retained the SSTR4 potency of Fj1”.

Take `NCCCC[C@@H]1NC(=O)[C@@H](Cc2c[nH]c3ccccc23)NC(=O)[C@@H](N)CSSC[C@@H](C(=O)O)NC(=O)CNC(=O)[C@H](Cc2ccccc2)NC1=O` [Fj1A9, Cys3-D-Trp4-Lys5-Phe6-Gly7-Cys8] (H-C[dW]KFGC-OH; disulfide 1-6; N-terminus assumed): the “decrease in potency at SSTR4” value in test [1] turned out to be 47 fold.

On to `Cc1ccc(S(=O)(=O)N[C@@H](CCN)C(=O)N[C@@H](Cc2ccccc2)C(N)=O)c2ccccc12` [J-2156], for which, in test [5], the “selectivity for SSTR4 over SSTR1” value is “approximately 360 fold” and the “selectivity for SSTR4 over SSTR5” value is listed as around 390 fold.

As to `CC(C)[C@H](NC(=O)[C@@H]1CCCN1)C(=O)N[C@H]1CSSC[C@@H](C(=O)N[C@@H](Cc2c[nH]c3ccccc23)C(=O)O)NC(=O)[C@H](CC(N)=O)NC(=O)[C@H](Cc2ccccc2)NC(=O)[C@H](CCCCN)NC(=O)[C@@H](Cc2c[nH]c3ccccc23)NC1=O` [Fj1A20] (H-PVC[dW]KFNCW-OH; disulfide 3-8; N-terminus assumed), the “effect on SSTR4 potency” value in test [1] was “slight decrease in SSTR4 potency”. As to `CC(C)C[C@H](NC(=O)[C@@H]1C[C@@H](O)CN1C(=O)[C@@H]1CSSC[C@H](NC(=O)[C@@H](NC(=O)[C@@H]2CCCN2)C(C)C)C(=O)N[C@H](Cc2c[nH]c3ccccc23)C(=O)N[C@@H](CCCCN)C(=O)N[C@@H](Cc2ccccc2)C(=O)N[C@@H](CC(N)=O)C(=O)N1)C(=O)O` [Fj1A17] (H-PVC[dW]KFNC[Hyp]L-OH; disulfide 3-8; N-terminus assumed), in test [1], the “increase in potency at SSTR4” value is 6.8 fold. As for `CC(C)[C@H](NC(=O)[C@@H]1CCCN1)C(=O)N[C@H]1CSSC[C@@H](C(=O)O)NC(=O)CNC(=O)[C@H](Cc2ccccc2)NC(=O)[C@H](CCCCN)NC(=O)[C@@H](Cc2c[nH]c3ccccc23)NC1=O` [Fj1A11] (H-PVC[dW]KFGC-OH; disulfide 3-8; N-terminus assumed), the “effect on SSTR4 potency” value in test [1] is listed as “virtually equipotent”.

For `CC(C)[C@H](NC(=O)[C@@H]1CCCN1)C(=O)N[C@H]1CSSC[C@@H](C(=O)N[C@@H](Cc2c[nH]c3ccccc23)C(=O)O)NC(=O)CNC(=O)[C@H](Cc2ccccc2)NC(=O)[C@H](CCCCN)NC(=O)[C@@H](Cc2c[nH]c3ccccc23)NC1=O` [Fj1A14] (H-PVC[dW]KFGCW-OH; disulfide 3-8; N-terminus assumed), in test [1], the “increase in potency at SSTR4” value is reported as 85 fold. For `CC(C)[C@H](NC(=O)[C@@H]1CCCN1)C(=O)N[C@H]1CSSC[C@@H](C(=O)N[C@@H](Cc2c[nH]c3ccccc23)C(=O)O)NC(=O)[C@H](CO)NC(=O)[C@H](Cc2ccccc2)NC(=O)[C@H](CCCCN)NC(=O)[C@@H](Cc2c[nH]c3ccccc23)NC1=O` [Fj1A18] (H-PVC[dW]KFSCW-OH; disulfide 3-8; N-terminus assumed), the “effect on SSTR4 potency” value in test [1] is listed as “well tolerated”. In the case of `CC(C)C[C@H](NC(=O)[C@@H]1C[C@@H](O)CN1C(=O)[C@@H]1CSSC[C@H](N)C(=O)N[C@H](Cc2c[nH]c3ccccc23)C(=O)N[C@@H](CCCCN)C(=O)N[C@@H](Cc2ccccc2)C(=O)NCC(=O)N1)C(=O)O` [Fj1A10] (H-C[dW]KFGC[Hyp]L-OH; disulfide 1-6; N-terminus assumed), the “decrease in potency at SSTR4” value in test [1] is on record as 13 fold. Turning to `CC(C)C[C@H](NC(=O)[C@@H]1C[C@@H](O)CN1C(=O)[C@@H]1CSSC[C@H](NC(=O)[C@@H](NC(=O)[C@@H]2CCCN2)C(C)C)C(=O)N[C@H](Cc2c[nH]c3ccccc23)C(=O)N[C@@H](CCCCN)C(=O)N[C@@H](Cc2ccccc2)C(=O)N[C@@H](C)C(=O)N1)C(=O)O` [Fj1A4] (H-PVC[dW]KFAC[Hyp]L-OH; disulfide 3-8; N-terminus assumed), in test [1], the “increase in potency at SSTR4” value is on record as 6.2 fold. Turning to `CC(C)C[C@H](NC(=O)[C@@H]1C[C@@H](O)CN1C(=O)[C@@H]1CSSC[C@H](NC(=O)[C@@H](NC(=O)[C@@H]2CCCN2)C(C)C)C(=O)N[C@@H](C)C(=O)N[C@@H](CCCCN)C(=O)N[C@@H](Cc2ccccc2)C(=O)NCC(=O)N1)C(=O)O` [Fj1A1] (H-PVCAKFGC[Hyp]L-OH; disulfide 3-8; N-terminus assumed), the “decrease in potency at SSTR4” value in test [1] is given as 5000 fold.

Source of the values: article PMC12663243 (Scientific Reports, 2025).
